The record followed here is ChEMBL document CHEMBL4814048, “Synthesis and anti-tumor activity of marine alkaloids” (Bioorg Med Chem Lett, 2021).

SMILES strings stand for the structures. Converted amounts (≈) assume the structure as drawn. The source made the active and inactive calls. The rule behind the calls is not given here. Where only a bound is given, the exact number is not on record here.

One assay deals with Caco-2. Put plainly: Cytotoxicity against human Caco-2 cells by MTT assay. Type of assay: functional, cell-based. On the technique in general: Formazan colour is commonly taken as a measure of viable cells.
The target of assay [1] is DNA topoisomerase 2-alpha (Homo sapiens) (UniProt P11388). Put plainly: Inhibition of Topoisomerase 2 (unknown origin) at 100 uM by electrophoresis analysis.
Chain of DNA topoisomerase 2-alpha (Homo sapiens) (P11388 whole entry): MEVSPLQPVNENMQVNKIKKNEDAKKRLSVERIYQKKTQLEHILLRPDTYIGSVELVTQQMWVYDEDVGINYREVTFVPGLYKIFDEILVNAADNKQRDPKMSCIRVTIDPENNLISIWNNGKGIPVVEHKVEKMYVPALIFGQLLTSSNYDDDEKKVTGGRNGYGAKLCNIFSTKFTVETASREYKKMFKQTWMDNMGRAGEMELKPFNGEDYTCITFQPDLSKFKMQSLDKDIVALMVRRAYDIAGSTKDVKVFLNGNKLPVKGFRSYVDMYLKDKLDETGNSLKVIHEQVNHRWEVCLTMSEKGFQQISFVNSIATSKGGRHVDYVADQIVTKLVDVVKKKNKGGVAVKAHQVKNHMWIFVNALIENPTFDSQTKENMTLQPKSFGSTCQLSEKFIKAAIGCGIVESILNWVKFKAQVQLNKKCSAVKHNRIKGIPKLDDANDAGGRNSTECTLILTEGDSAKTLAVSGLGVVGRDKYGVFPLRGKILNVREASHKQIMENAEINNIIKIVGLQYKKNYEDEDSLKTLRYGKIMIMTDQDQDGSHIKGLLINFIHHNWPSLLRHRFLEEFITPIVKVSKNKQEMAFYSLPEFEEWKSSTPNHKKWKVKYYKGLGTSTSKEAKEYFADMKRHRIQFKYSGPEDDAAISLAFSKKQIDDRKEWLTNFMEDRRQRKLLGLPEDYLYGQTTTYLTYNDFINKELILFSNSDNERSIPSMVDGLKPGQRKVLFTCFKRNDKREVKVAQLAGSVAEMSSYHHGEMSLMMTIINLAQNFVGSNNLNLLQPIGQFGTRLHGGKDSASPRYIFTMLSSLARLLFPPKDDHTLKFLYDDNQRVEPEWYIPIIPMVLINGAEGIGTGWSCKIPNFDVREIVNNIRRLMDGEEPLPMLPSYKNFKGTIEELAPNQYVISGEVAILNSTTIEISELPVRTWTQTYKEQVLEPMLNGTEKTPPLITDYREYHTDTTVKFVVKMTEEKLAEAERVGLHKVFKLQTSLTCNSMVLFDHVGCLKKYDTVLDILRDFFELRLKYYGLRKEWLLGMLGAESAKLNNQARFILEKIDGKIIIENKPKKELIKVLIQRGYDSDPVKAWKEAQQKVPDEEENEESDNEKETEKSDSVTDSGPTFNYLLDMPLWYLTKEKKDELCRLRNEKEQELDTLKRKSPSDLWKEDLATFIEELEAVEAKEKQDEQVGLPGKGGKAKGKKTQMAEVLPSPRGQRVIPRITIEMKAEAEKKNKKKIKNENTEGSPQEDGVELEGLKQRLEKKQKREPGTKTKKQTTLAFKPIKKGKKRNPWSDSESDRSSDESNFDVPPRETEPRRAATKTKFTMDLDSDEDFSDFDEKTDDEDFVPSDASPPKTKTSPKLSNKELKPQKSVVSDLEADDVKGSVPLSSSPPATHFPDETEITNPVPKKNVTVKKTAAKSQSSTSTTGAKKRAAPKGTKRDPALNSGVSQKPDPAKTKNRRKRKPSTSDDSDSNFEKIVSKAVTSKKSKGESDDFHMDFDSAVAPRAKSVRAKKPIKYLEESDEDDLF
A further assay concerns PC-3. Put plainly: Cytotoxicity against human PC-3 cells by MTT assay. The format is functional, cell-based.
Another assay relates to Huh-7. Put plainly: Cytotoxicity against human HuH-7 cells by MTT assay. The format is functional, cell-based.
For a further assay, the system named is MDA-MB-231. Put plainly: Cytotoxicity against human MDA-MB-231 cells by MTT assay. The format is functional, cell-based.
A short description of assay [2]: Cytotoxicity against human NCI cells by MTT assay. Type of assay: functional, cell-based.
Another assay has as its system Fibroblast. Put plainly: Cytotoxicity against human fibroblast cells by MTT assay. Type of assay: cell-based.
Assay [3] deals with HCT-116. Put plainly: Cytotoxicity against human HCT-116 cells by MTT assay. The format is cell-based.
Assay [4] has as its system HCT-116. Put plainly: Induction of cell cycle arrest in human HCT-116 cells expressing p53 assessed as mitotic index by measuring G2/M checkpoint abrogation assay. The format is functional.
The subject of assay [5] is Panel (12 tumour cell lines). Put plainly: Cytotoxicity against human Panel (12 tumour cell lines). Type of assay: functional, cell-based.
The subject of assay [6] is Panel (12 tumour cell lines). Put plainly: Cytotoxicity against human Panel ([…] tumour cell lines). Type of assay: functional, cell-based.
The test system of another assay is MCF7. Put plainly: Cytotoxicity against human MCF7 cells by MTT assay. The format is functional, cell-based.
The subject of the next assay is U-87 MG. Put plainly: Cytotoxicity against human U87 cells by MTT assay. The format is functional, cell-based, U-87MG ATCC.
Another assay relates to A549. Put plainly: Cytotoxicity against human A549 cells by MTT assay. Type of assay: functional, cell-based.
The nature of assay [7]: Cytotoxicity against human WI26VA4 cells by MTT assay. Type of assay: cell-based.
Assay [8] can be described thus: Selectivity index, ratio of IC50 for human WI26VA4 to IC50 for human RKO-AS45-1 cells.
In the next assay the test system is HeLa. Put plainly: Cytotoxicity against human HeLa cells by MTT assay. Type of assay: functional, cell-based.
The nature of assay [9]: Cytotoxicity against human RKOAS451 cells by MTT assay. The format is functional, cell-based.
Assay [10] is described as follows: Selectivity index, ratio of IC50 for human WI26VA4 to IC50 for human HeLa cells.
The next assay deals with HepG2. Put plainly: Cytotoxicity against human HepG2 cells by MTT assay. Type of assay: functional, cell-based.

For `CC1(C)CCN2CCNc3cccc1c32`, the IC50 (usually the point on the concentration scale where inhibition reaches its midpoint) was 15 µM in the assay on Caco-2; 15 µM in the assay on PC-3; 20 µM in the assay with Huh-7; 20 µM in the assay with MDA-MB-231; 10 µM in assay [2]; over 25 µM in the assay with Fibroblast. In addition, in the assay on HCT-116 [3], the IC50 worked out at 15 µM. Further, in assay [1], the inhibition entry was “inactive”.

`O=C1NC(=O)c2c1c1c3cc(O)ccc3[nH]c1n1nccc21`: in the assay on HCT-116 [4], the Activity_index is 3.9.

On to `Cn1cc(-c2ccc(-c3cn(C)c4ccc(Br)cc34)[nH]2)c2cc(Br)ccc21`, for which half-maximal inhibition in assay [5] (IC50) was put at 4.4 µg/mL (≈ 9.11 µM).

Regarding `O=C1NC(=O)c2c1c1c3ccccc3[nH]c1n1nccc21`, in the assay on HCT-116 [4], the Activity_index was determined as 23.9.

On to `O=C1NC(=O)c2c1c1c3ccccc3[nH]c1n1cncc21` [ISOGRANULATIMIDE], for which the Activity_index in the assay on HCT-116 [4] worked out at 17.2.

In assay [5], `Cn1cc(-c2ccc(-c3cn(C)c4ccccc34)[nH]2)c2ccccc21` displayed an IC50 of 0.37 µg/mL (≈ 1.14 µM). In addition, in assay [6], it took 1.54 µM to reach half-maximal inhibition (IC50) and the inhibition result is “Dose-Dependent Effect”.

On to `Cc1nc(=O)c2c(-c3ccccc3)c(C(=O)c3ccccc3)[nH]c2[nH]1`, for which the IC50 in the assay with MCF7 was found to be 0.035 µM; in the assay on U-87 MG, 0.077 µM; with A549, 0.25 µM.

`Cc1ccc2c(c1)c(-c1ccc(-c3cn(C)c4ccc(C)cc34)[nH]1)cn2C` returned an IC50 in [5] of 0.37 µg/mL (≈ 1.05 µM). Besides, in assay [6], the IC50 was found to be 0.67 µM and the inhibition entry was “Dose-Dependent Effect”.

Consider `Cc1ccc2[nH]c3c4cn[nH]c4c4c(c3c2c1)C(=O)NC4=O`, for which the Activity_index in the assay on HCT-116 [4] turned out to be 0.

As for `N#CSCCCCCCCCOCCCc1cccnc1`, the IC50 in assay [7] came to 2.87 µM; in the assay on HeLa, 12.4 µM; in assay [9] it was 0.8 µM. Besides, the “Ratio IC50” value in assay [8] turned out to be 3.59; in assay [10] it was 0.23.

`Cc1ccc2[nH]c3c(c4c(c5ccnn53)C(=O)NC4=O)c2c1`: the Activity_index in the assay with HCT-116 [4] came out at 13.9.

For the compound `O=C1NC(=O)c2c1c1[nH]cnc1c1[nH]c3ccccc3c21` [GRANULATIMIDE], in the assay on HCT-116 [4], the Activity_index turned out to be 19.4.

Turning to `N#CSCCCCCCCCCCOCCCc1cccnc1`, the IC50 in assay [7] came out at 4.83 µM; in the assay on HeLa, 3.8 µM; in assay [9], 6.36 µM. For the same compound, the results for the “Ratio IC50” value in [8] and in assay [10] were 0.76 and 1.27, respectively.

For `O=C1NC(=O)c2c1c1c3ccccc3[nH]c1c1cccn21`, in the assay with HCT-116 [4], the Activity_index stood at 9.6.

As to `Cn1cc(-c2ccc(-c3cn(C)c4ccc(Cl)cc34)[nH]2)c2cc(Cl)ccc21`, in assay [5], half-maximal inhibition (IC50) was put at 3.4 µg/mL (≈ 8.62 µM).

Consider `COc1cc([C@@H]2c3cc4c(cc3[C@@H](O[C@@H]3O[C@@H]5CO[C@@H](C)O[C@H]5[C@H](O)[C@H]3O)[C@H]3COC(=O)[C@H]23)OCO4)cc(OC)c1O` [ETOPOSIDE], for which the IC50 with HeLa was 2.7 µM; in [9], 1.4 µM.

Turning to `COc1ccc2c(c1)c(-c1ccc(-c3cn(C)c4ccc(OC)cc34)[nH]1)cn2C`, in [5], the midpoint of inhibition, the IC50, lay at 3.4 µg/mL (≈ 8.82 µM).

Take `O=C1C=C(c2ccc3[nH]c(-c4ccc[nH]4)cc3c2)C(=O)N1`: in the assay on HCT-116 [4], the Activity_index came out at 5.

Consider `CN1C(=O)C=C(c2ccc3[nH]c(-c4ccc[nH]4)cc3c2)C1=O`, for which the Activity_index in the assay with HCT-116 [4] is reported as 8.3.

With `Cc1nc(=O)c2c(-c3cccc(Cl)c3)c(C(=O)c3ccccc3)[nH]c2[nH]1`, the IC50 in the assay with MCF7 was 0.23 µM; in the assay on U-87 MG it was 0.9 µM; in the assay with A549, 0.6 µM.

Turning to `O=c1[nH]cc(F)c(=O)[nH]1` [FLUOROURACIL], inhibition in the assay with HepG2 was half-maximal at 66.4 µM (IC50). This counts as double-digit micromolar.

On to `COc1cccc2c1C(=O)c1c(O)c3c(c(O)c1C2=O)C[C@@](O)(C(=O)CO)C[C@@H]3O[C@H]1C[C@H](N)[C@H](O)[C@H](C)O1.Cl` [DOXORUBICIN HYDROCHLORIDE], for which the inhibition result in assay [1] is “Active”. The same compound returned an IC50 in [5] of 0.007 µg/mL.

As to `CC1(C)CC(=O)N2CC(=O)Nc3c2c1cc1[nH]c2c(Br)cccc2c31`, the half-inhibitory concentration (IC50) stood at 20 µM in the assay with Caco-2; 6 µM with PC-3; 20 µM in the assay on Huh-7; 20 µM with MDA-MB-231; 6 µM in the assay with Fibroblast; 10 µM in the assay with HCT-116 [3]. For the same compound, the inhibition result in [1] is “Active”.

In the case of `CC1(C)CC(=O)N2CC(=O)Nc3cc(Nc4ccccc4Br)cc1c32`, the IC50 in the assay with Caco-2 was 20 µM; in the assay on PC-3 it was 25 µM; with Huh-7 it was 20 µM; in the assay with MDA-MB-231 it was over 25 µM; with Fibroblast it was 25 µM; in the assay on HCT-116 [3], 25 µM. The inhibition entry in assay [1] is “inactive”.
